In patent US5466716A, “Liposomal trimethylsphingosine” (The Biomembrane Institute, priority 1994, dated 1995):
Entries after “also recorded” stand apart in the source; their conditions may differ.

Columns and labels:
platelets = test: platelet aggregation; assay type: cell-based, human
Method: FIGS. 7A and 7B depict the effect of N,N,N-trimethylsphingosine (TMS) on platelet aggregation. A 0.45 ml aliquot of human platelet suspension (3-5×10^5 platelets per μl of Tyrode's buffer) was incubated with sphingosine or TMS for 2 minutes. Then platelet aggregation was induced by the addition of either γ-thrombin (FIG. 7A) or adenosine diphosphate (ADP) (FIG. 7B) in 0.05 ml. The degree of aggregation was determined in an aggregometer and the data analyzed with an integrated computer (Kyoto Daiichi Kagaku Co. Ltd.).
FIG. 8 depicts further the dose response of platelet aggregation by sphingoid. Aggregation of the platelets was induced with 10 nM γ-thrombin.
Platelets were isolated from platelet-rich plasma (purchased from the Oregon Red Cross, Portland, Oreg. Contaminating erythrocytes were removed by centrifugation (80×g for 10 minutes). Platelets were obtained by centrifugation (300×g for 10 minutes), washed once in Tyrodes's buffer (pH 6.5) containing 22 mM trisodium citrate and 0.35% (w/v) BSA and resuspended in the same buffer to obtain a concentration of 1-2×10^9 platelets/ml. All procedures were performed at room temperature.
A suspension of platelets (3.5×10^8 /ml) in Tyrode's buffer was preincubated with various inhibitor compounds (H-7 is [1-(5-isoquinolinylsulfonyl)-2-methylpiperazine, a synthetic protein kinase-C inhibitor purchased from Seikagaku America Inc., St. Petersburg, Fla.], calphostin-C [a synthetic protein kinase-C inhibitor obtained from Dr. Saitoh, Kyowa Hakko Co., Ltd., Machida, Tokyo, Japan], sphingosine [purchased from Sigma, St. Louis, Mo.] and dimethylsphingosine and trimethylsphingosine [synthesized according to Igarashi et al., Biochem., 28, 6796, 1989]) followed by addition of thrombin or ADP (both purchased from Sigma). Platelet aggregation was evaluated by transmittance change using an aggregometer (Chrono-log Corp., Havertown, Pa.) equipped with a computer analyzer.

water solubility = assay type: physicochemical; conditions: for appearance of aqueous solution: neutral or physiologic pH
From the text: For comparison purposes those same test cells also are exposed to sphingosine and N,N-dimethylsphingosine.

HL60 cells = test: HL60 cell binding to activated platelets; assay type: cell-based, human; conditions: thrombin- and PMA-stimulated platelets
Method: FIGS. 12A and 12B depict results of representative experiments assessing the degree of HL60 binding to platelets. Platelets were exposed to inhibiting compounds (symbols are the same as in the legend to FIGS. 11A and 11B) and affixed to the wells of a microtiter plate. HL60 cells labelled with tritiated thymidine were introduced into the wells and the amount of bound radioactivity was assessed.
HL60 (a human promylelocytic cell line available from the ATCC under accession number CCL 240) adhesion on resting or activated platelet-coatedsolid phase was evaluated as follows. Each well of a 48-well plate (Costar Scientific, Cambridge, Mass.) was filled with a poly-L-lysine solution (100 μg/ml in PBS) and incubated for 1 hour. Each well then was washed with PBS and then 150 μl of PBS containing 6×10^7 resting or activated platelets were added to each well and the plate was incubated for 1 hour. Plates were centrifuged (300×g for 7 minutes) and incubated a further 30 minutes at room temperature. Bound platelets were fixed by addition of 0.1% (w/v) glutaraldehyde in PBS for 2 minutes at 4° C. Each well was washed with 10 mM glycine in PBS and plates were incubated with 5% (w/v) BSA containing 0.1% (w/v) sodium azide, 10 mM glycine in PBS for 1 hour at room temperature.
After washing with culture medium (RPMI 1640 containing 5% (v/v) FCS), 1×10^6 HL60 cells labeled with [^3 H]thymidine were added to each well. HL60 was maintained in RPMI 1640 medium (purchased from Irvine Scientific, Santa Ana, Calif.) supplemented with 10% FCS (Hyclone, Logan, Utah). (Radiolabeling of HL60 cells used for cell adhesion assays was performed by incubating cells with 2 μCi/ml of [^3 H]thymidine overnight.) After incubation for 45 minutes at room temperature, unbound cells were aspirated and wells were washed once with medium (RPMI 1640 containing 5% (v/v) FCS), bound cells were detached with 0.05% (w/v) trypsin-0.02% (w/v) EDTA (Irvine Scientific) in PBS and the levels of radioactivity in each well were determined in a liquid scintillation counter.

protein kinase-C = conditions: cited from earlier work
[1] = system: human colonic cancer cell line COLO-205; test: tritiated thymidine incorporation, tumor cell growth (COLO-205); assay type: cell-based; conditions: COLO-205, FIG. 2A
From the text: FIGS. 2A-2C show the effect of sphingosine derivatives on human tumor cell growth. In FIG. 2A the growth of human colonic cancer cell line COLO-205 was monitored. In FIG. 2B the growth of human lung cancer cell line LU-65 was monitored. In FIG. 2C the growth of human gastric cancer cell line MKN-74 was monitored. In each Figure the ordinate represents the percent inhibition of tritiated thymidine incorporation, the solid circles represent sphingosine, the open circles represent N,N-dimethylsphingosine and the triangles represent N,N,N-trimethylsphingosine.
An in vitro assay relying on tritiated thymidine incorporation can be used to ascertain the effect of various compounds on cell proliferation. Briefly, tumor cells are seeded in flat bottom 96 well plates (Corning, N.Y.) at a concentration of 2×10^4 cells per well. The cells are cultured for 2 days in DMEM containing various concentrations of sphingoid, which is added as a PBS solution. The medium then is supplemented with tritiated thymidine at a concentration of 0.5 μCi per well. Following a six hour incubation the cells are collected using the PHD Cell Harvester (Cambridge Technology, Cambridge, Mass.) and amounts of incorporated radioactivity are determined after adding a suitable cell lysing agent and scintillation cocktail, such as ScintiVerse BD (Fisher Scientific, Fairlawn, Calif.) which performs both functions. […]

MKN-74 cells = test: comparative effect of reagents on MKN-74 tumor cell growth/differentiation; assay type: cell-based, human; conditions: MKN-74, FIG. 3, compared with DMS, SPN, cAMP derivatives, HMBA
From the text: FIG. 3 depicts the comparative effect of various reagents on tumor cell differentiation. MKN-74 cells were exposed to N,N,N-trimethylsphingosine (open squares), N,N-dimethylsphingosine (open circles), 8-chloro-cyclic AMP (open triangles), dibutyryl cyclic AMP (solid triangles), sphingosine (solid circles) and hexamethylenebisacetamide (solid squares).
An in vitro assay relying on tritiated thymidine incorporation can be used to ascertain the effect of various compounds on cell proliferation. Briefly, tumor cells are seeded in flat bottom 96 well plates (Corning, N.Y.) at a concentration of 2×10^4 cells per well. The cells are cultured for 2 days in DMEM containing various concentrations of sphingoid, which is added as a PBS solution. The medium then is supplemented with tritiated thymidine at a concentration of 0.5 μCi per well. Following a six hour incubation the cells are collected using the PHD Cell Harvester (Cambridge Technology, Cambridge, Mass.) and amounts of incorporated radioactivity are determined after adding a suitable cell lysing agent and scintillation cocktail, such as ScintiVerse BD (Fisher Scientific, Fairlawn, Calif.) which performs both functions.
MKN-74 cells were exposed to cAMP and derivatives thereof and to HMBA, which are known to inhibit tumor cell growth by differentiation induction.

[2] = chloride salts and slightly acidic pH

Molecule | inhibition of thrombin- or ADP-induced platelet aggregation (platelets; thrombin or ADP, compared with TMS) | water solubility (water solubility; [2]) | appearance of aqueous solution (water solubility) | water solubility (water solubility; particularly at physiologic pH) | inhibition of HL60 cell binding (HL60 cells) | concentration reported to inhibit protein kinase-C (protein kinase-C; in vitro, Tamaoki & Nakano) | PK-C inhibition (protein kinase-C; below 100 μM, Igarashi et al.) | inhibition of ATP secretion associated with platelet aggregation (platelets) | inhibition of platelet aggregation (platelets) | ristocetin-induced platelet aggregation following incubation (platelets; exclusion of cytotoxicity on platelets) | inhibition of tumor cell growth [1] | solubility in aqueous solvents (water solubility) | solubility (water solubility; acidic, neutral or basic conditions) | inhibition of tumor cell growth (MKN-74 cells)
CCCCCCCCCCCCC/C=C/[C@@H](O)[C@H](CO)N(C)C [DMS, (4E)-N,N-dimethyl-D-erythro-sphingosine] | did not inhibit thrombin- or ADP-induced platelet aggregation as well as did TMS | soluble in water | tend to form opaque suspensions | less water soluble | inhibited strongly |  |  |  |  |  |  |  |  | 
Calphostin C |  |  |  |  |  | 0.05 µM |  |  |  |  |  |  |  | 
CCCCCCCCCCCCC/C=C/[C@@H](O)[C@@H](N)CO [SPN, sphingosine] |  | soluble in water | tend to form opaque suspensions | less water soluble | minimally inhibited |  | did not inhibit PK-C |  |  |  |  |  |  | 
CCCCCCCCCCCCC/C=C/[C@@H](O)[C@H](CO)[N+](C)(C)C [TMS, N,N,N-trimethylsphingosine] |  |  |  | highly water soluble | inhibited strongly |  |  | inhibited strongly | inhibited strongly; also recorded: inhibited platelet aggregation in a dose-responsive fashion | normal ristocetin-induced aggregation | superior to sphingosine; also recorded: showed an advantage over DMS | excellent solubility | stable, clear solutions | most effective inhibitor of tumor cell growth
